Measurements as given in PubChem BioAssay (NCI).
Several values for one entry are separate records, joined by “and”; a condition that tells them apart may be missing. Equal entries are not always repeated.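 Tested at 5 concentrations; 48 h exposure; 96-well plates; endpoints linearly interpolated, else capped at highest concentration. GI50 is the concentration that inhibits growth by half. TGI marks complete inhibition of growth.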

How the values were obtained:
Experiment in all cases: inhibition of tumour cell growth, NCI panel, 48 h
DMS 273 small cell lung = system: DMS 273 small cell lung
HCT-116 colon = system: HCT-116 colon
HL-60(TB) leukemia = system: HL-60(TB) leukemia
KM20L2 colon = system: KM20L2 colon
NCI-H522 lung = system: NCI-H522 lung
IGROV1 ovarian = system: IGROV1 ovarian
OVCAR-8 ovarian = system: OVCAR-8 ovarian
M19-MEL melanoma = system: M19-MEL melanoma
OVCAR-4 ovarian = system: OVCAR-4 ovarian
HOP-92 NSCLC = system: HOP-92 NSCLC
MCF7 breast = system: MCF7 breast
MDA-N = system: MDA-N

SMILES | TGI (DMS 273 small cell lung) [µM] | TGI (HCT-116 colon) | TGI (HL-60(TB) leukemia) [µM] | TGI (KM20L2 colon) [µM] | TGI (NCI-H522 lung) | TGI (IGROV1 ovarian) | TGI (OVCAR-8 ovarian) [µM] | TGI (M19-MEL melanoma) [µM] | TGI (OVCAR-4 ovarian) [µM] | TGI (HOP-92 NSCLC) | TGI (MCF7 breast) [µM] | GI50 (HCT-116 colon) | GI50 (NCI-H522 lung) [µM] | GI50 (IGROV1 ovarian) | TGI (MDA-N) [µM]
CC(=O)CC(=O)CCC(=O)O | > 100 | > 100 µM | > 100 | > 100 | > 100 µM | > 100 µM | > 100 | > 100 | – | – | – | – | – | – | –
Cc1csc(NC(=NCCN2CCOCC2)Nc2nc(C)cs2)n1 | > 100 | > 100 µM | > 100 | > 100 | > 100 µM | > 100 µM | > 100 | > 100 | > 100 | > 100 µM | > 100 | – | – | – | –
CC(=O)O[C@H]1CC[C@@]2(C)[C@H](CC[C@@H]3[C@@H]2CC[C@]2(C)[C@@H](c4ccc(=O)oc4)C[C@H]4O[C@]342)C1 | 1.47 | 4.63 µM | 0.592 | 12.5 | 1.23 µM | 11.3 µM | 4.1 | 7.17 | 3.86 | 3.67 µM | 22.1 | – | – | – | –
CC1(C2CCC3(C)OC3C2)CO1 (stereo not given) | > 100 | > 100 µM | > 100 | > 100 | > 100 µM | > 100 µM | > 100 | > 100 | > 100 | > 100 µM | – | – | – | – | –
O=C1C=CC(=O)c2c(O)c(N3CCN(CCOCCO)CC3)c(Cl)c(O)c21 | 2.25 | 801 nM [middle of 4 runs] | – | 2.07 | 1.19 µM and 0.352 µM | 3.2 µM [middle of 4 runs] | – | 1.08 | – | 0.45 µM and 0.493 µM and 1.12 µM | – | 333 nM [middle of 4 runs] | 0.313 | 1.64 µM [middle of 4 runs] | –
C#CCC1(C(=O)OCC)C(=O)c2ccccc2N(C)C1=O (stereo not given) | > 100 | – | > 100 | > 100 | 27.3 µM | > 100 µM | > 100 | > 100 | – | > 100 µM | – | – | – | – | –
N/C(=N\Nc1ccc(S(N)(=O)=O)cc1)c1cnccn1 | – | > 100 µM | > 100 | – | > 100 µM | > 100 µM | > 100 | – | > 100 | > 100 µM | > 100 | – | – | – | > 100
O=C1c2ccccc2-c2[nH]c3cn[nH]c(=O)c3c21 | – | > 100 µM | > 100 | – | 50.9 µM | > 100 µM | > 100 | – | > 100 | > 100 µM | > 100 | – | – | – | > 100
N#Cc1nc(C#N)n(C(=O)c2ccccc2)c1NC(=O)c1ccccc1 | – | > 100 µM | > 100 | – | > 100 µM | > 100 µM | > 100 | – | > 100 | > 100 µM | > 100 | – | – | – | > 100
CCN(CC)c1nc(N(C)C)c2ccccc2n1 | – | > 100 µM | > 100 | – | 96.9 µM | > 100 µM | > 100 | – | > 100 | > 100 µM | > 100 | – | – | – | 59.9
CCCNc1ncnc2[nH]ncc12 | – | > 100 µM | > 100 | – | > 100 µM | > 100 µM | > 100 | – | > 100 | > 100 µM | > 100 | – | – | – | > 100
COc1ccc(-c2cc(C(O)C3CCCCN3)c3ccccc3n2)cc1 (stereo not given) | – | 21.5 µM | 26.4 | – | 22.4 µM | 22.4 µM | 29.5 | – | 27.5 | 13.1 µM | 14.2 | – | – | – | 16.7
NCCOCC(N)C(=O)O (stereo not given) | – | > 100 µM | > 100 | – | > 100 µM | > 100 µM | > 100 | – | > 100 | > 100 µM | > 100 | – | – | – | > 100
O=c1cc(NCc2ccncc2)[nH]c(=O)[nH]1 | – | > 100 µM | > 100 | – | > 100 µM | > 100 µM | > 100 | – | > 100 | > 100 µM | > 100 | – | – | – | > 100
